Results taken from publication PMC10622746, “Coadministration of ivermectin and abamectin affects milk pharmacokinetics of the antiparasitic clorsulon in Assaf sheep” (Frontiers in Veterinary Science, 2023).
Like-named read-outs stand apart in the source and are kept apart here.

Key:
ovine ABCG2 [1] = system: ovine ABCG2
Description: (§5) This study employed Madin-Darby Canine Kidney (MDCKII) cells that had been previously transduced with ovine ABCG2. […] Briefly, cells were grown in DMEM (Dulbecco’s modified Eagle’s medium) enriched with glutamax (Life Technologies, Inc., Rockville, MD, United States) and supplemented with penicillin (50 units/mL), streptomycin (50 μg/mL), and 10% (v/v) fetal calf serum (MP Biomedicals, Solon, OH, United States) at a temperature of 37°C and 5% of CO2. Every 3 to 4 days, cells were trypsinized for subculturing.
(§6) Transcellular transport experiments using ovine ABCG2-transduced cells were conducted following the method previously described ([33]). Cells were seeded onto microporous polycarbonate membrane filters (3.0 μm pore size, 24 mm diameter; Transwell 3414; Costar, Corning, NY) at a density of 1.0 × 10^6 per well. The tightness of the monolayer was assessed by measuring its transcellular resistance using Millicell ERS (Millipore Burlington, MA).
(§7) Two hours before the beginning, preincubation was carried out replacing medium in both compartments with 2 mL of transport medium [Hanks’ balanced salt solution supplemented with HEPES (25 mM)] with or without the macrocyclic lactones (10 μM ivermectin and 2.5 μM abamectin). The experiment began with the replacement of the medium in either the apical or basal compartment with transport medium containing clorsulon (10 μM), with or without the same concentration of macrocyclic lactones. Aliquots of 100 μL at 1, 2 and 3 h in the opposite compartment were taken, this volume being replaced with fresh medium. At 4 h, 600 μL aliquots were taken in both compartments. Until analysis by high-performance liquid chromatography (HPLC), samples were stored at −20°C. After concluding the experiment, the confluence of the monolayer was evaluated by means of the Lucifer Yellow permeability assay ([34]). Transport proficiency of these cells was consistently verified through the evaluation of a typical ABCG2 substrate, danofloxacin ([25]).
(§8) The apparent permeability coefficients (Papp) across MDCKII parent and MDCKII oABCG2 cells monolayers in both apical to basal (A-B) (Papp A-B) and basal to apical (B-A) (Papp B-A) directions were calculated using following equation: Papp = (ΔQ/Δt)*(1/A*Co), where ΔQ/Δt is the rate of corresponding clorsulon appearing in the receiver chamber, which was obtained as the slope of the regression line on the transport time profile of clorsulon across the cell monolayers (from 0 to 4 h); Co is the initial concentration of drug; A is the cell monolayer surface area (4.67 cm^2). The efflux ratio is the Papp B-A/Papp A-B quotient.

[2] = Milk pharmacokinetics of clorsulon in lactating Assaf sheep; assay type: in vivo; details: clorsulon 2 mg/kg s.c., alone or with ivermectin or abamectin 0.2 mg/kg s.c., mean ± SD, n = 6
Description: (§1) Studies with sheep were carried out on the Experimental Farm of the University of León, following institutional guidelines in accordance with European legislation (2010/63/EU). Procedures were also approved by the Animal Care and Use Committee of the University of León ULE-008-2019 (25/09/2019). Eighteen lactating sheep (3–4 months in lactation) of between 77–83 kg were used. Animals were previously dewormed and they had ad libitum access to drinking water. Sheep were randomly distributed in three experimental groups. All received a subcutaneous (s.c.) injection of clorsulon at 2 mg/kg (dissolved in DMSO, 80 mg/mL); one group coadministrated with another s.c. injection of ivermectin at 0.2 mg/kg (Ivomec® 1%, Merial, France) and another group with another s.c. injection of abamectin at 0.2 mg/kg (dissolved in DMSO, 8 mg/mL). Blood samples were taken from the jugular vein, while milk samples were obtained after completing milking of the gland before each treatment and at intervals of 1, 2, 4, 6, 8, 10, 12, 24, 30, 48, 72, 96, 120 and 168 h thereafter. Plasma was separated by centrifuging at 1200 g 15 min. Samples were stored at −20°C until analyzed.
(§2) Samples were analyzed by HPLC under conditions which have been previously described ([31]). Briefly, the chromatographic system used included a Waters 2695 separation module and a Waters 2998 UV photodiode array detector. Separation was performed on a reversed-phase column ([…], […], Torrance, CA, United States). The mobile phase consisted of potassium phosphate 0.01 M (pH 7): acetonitrile (75:25). The flow rate was set at 1.20 mL/min, with UV absorbance measured at 225 nm, and the column temperature maintained at 35°C.
(§3) In vitro samples were injected directly into the HPLC system. In vivo samples, milk and plasma, were extracted following a formerly described method ([31]) with minor modifications. For milk and plasma samples, 10 μL of albendazole-2-aminosulfone (6.25 μg/mL) as internal standard and 200 μL of ethyl acetate were added to each 100 μL. Then, the mixture was vortexed horizontally for 1 min and centrifuged at 8000 g for 10 min at 4°C. The resulting supernatant was collected and subjected to evaporation under N2 at 30°C until dryness. To the evaporated samples, 500 μL of hexane and 300 μL of acetonitrile was added, the mixture was again vortexed horizontally for 1 min and centrifuged at 3000 g for 10 min at 4°C. Hexane was removed and the rest was evaporated to dryness under nitrogen stream. After being resuspended in 100 μL of cold methanol, samples were injected into the HPLC system.
(§4) Plasma and milk concentrations for each animal were analyzed using PK solution 2.0 computer program (Summit Research Services, Ashland, OH) to calculated pharmacokinetic parameters as previously described ([27]).

[3] = Plasma pharmacokinetics of clorsulon in lactating Assaf sheep; assay type: in vivo; details: female
Description: as §1, §2, §3, §4

[4] = Transepithelial transport of clorsulon across MDCKII parental cell monolayers; assay type: in vitro ADME, Canine; details: dog, MDCK, MDCKII parental cells, clorsulon 10 μM, with or without ivermectin 10 μM, abamectin 2.5 μM, Ko143 1 μM, mean ± SD
ovine ABCG2 [5] = assay: in vitro; details: sheep
Description: as §5, §6, §7, §8

[6] = set-up: method as in earlier work; details: cattle, s.c. 2 mg/kg clorsulon; cited from earlier work
human ABCG2 = system: human ABCG2; set-up: method as in PMID 37078871; details: human ABCG2 transduced cell line; cited from earlier work
murine ABCG2 = system: murine ABCG2; set-up: method as in PMID 37078871; details: murine ABCG2 transduced cell line; cited from earlier work
ovine ABCG2 [7] = details: at 25 μM in ovine ABCG2-transduced cells; cited from earlier work
[8] = MDCKII oABCG2 cells, ivermectin 10 μM, abamectin […], Ko143 1 μM
[9] = sc, clorsulon 2 mg/kg s.c., alone or with ivermectin or abamectin 0.2 mg/kg s.c., mean ± SD, n = 6

COc1ccc2c3c([nH]c2c1)[C@H](CC(C)C)N1C(=O)[C@H](CCC(=O)OC(C)(C)C)NC(=O)[C@@H]1C3 [Ko143]
Inhibition of clorsulon (10 μM) transport mediated by ovine ABCG2 (in words) (ovine ABCG2 [1]; [8]): complete inhibition

Abamectin
Inhibition of clorsulon (10 μM) transport mediated by ovine ABCG2 (in words) (ovine ABCG2 [1]; [8]): effectively inhibited

Nc1cc(C(Cl)=C(Cl)Cl)c(S(N)(=O)=O)cc1S(N)(=O)=O [Clorsulon]
Kp ([2]; female, Assaf, milk/plasma, subcutaneous, sheep, read-out: AUC milk/AUC plasma): 0.49 ± 0.14
AUC(0-inf) ([2]; female, Assaf, sc, sheep milk): 20700 ± 4970 ng·h/mL
Cmax ([2]; female, Assaf, sc, sheep milk): 650 ± 290 ng/mL
MRT ([2]; female, Assaf, sc, sheep milk): 40.8 ± 6.15 h
Tmax ([2]; female, Assaf, sc, sheep milk): 10 ± 1.26 h
half-life ([2]; female, Assaf, sc, sheep milk, read-out: T1/2 of clorsulon in milk (converted)): 25.9 ± 3.72 h
Dose excreted (%) in milk (72 h) ([2]; sheep milk, 72 h): 0.86 ± 0.28%
AUC(0-inf) [3, 9]: 43300 ± 6400 ng·h/mL
Cmax [3, 9]: 2130 ± 280 ng/mL
MRT [3, 9]: 25 ± 3.97 h
Tmax [3, 9]: 6.67 ± 1.93 h
half-life ([3]; sc, clorsulon 2 mg/kg s.c., alone or with ivermectin or abamectin 0.2 mg/kg s.c., mean ± SD, n = 6, read-out: T1/2 of clorsulon in plasma (converted)): 19 ± 2.38 h
concentration at 8 h ([3]; subcutaneous, 8 h after clorsulon 2 mg/kg s.c., alone or with ivermectin 0.2 mg/kg s.c.): 1950 ± 240 ng/mL
Papp A→B at 4 h, 10 μM ([4]; n ≥ 3, read-out: AP-BL (Papp A-B)): 2.27 ± 0.46 ×10⁻⁶ cm/s
Papp B→A at 4 h, 10 μM ([4]; n ≥ 3, read-out: BL-AP (Papp B-A)): 2.41 ± 0.46 ×10⁻⁶ cm/s
efflux ratio at 4 h, 10 μM ([4]; read-out: Efflux ratio Papp B-A/Papp A-B): 1.07 ± 0.06
Papp A→B at 4 h, 10 μM (ovine ABCG2 [5]): 1.13 ± 0.16 ×10⁻⁶ cm/s
Papp B→A at 4 h, 10 μM (ovine ABCG2 [5]): 3.23 ± 0.88 ×10⁻⁶ cm/s
efflux ratio at 4 h, 10 μM (ovine ABCG2 [5]): 2.92 ± 0.93
Transport by ovine ABCG2 (substrate, in words) (ovine ABCG2 [1]; MDCKII oABCG2 cells, clorsulon 10 μM): efficiently transported
Maximum plasma concentration [6]: 2.5 µg/mL
Time of maximum plasma concentration [6]: 6 h
Efflux transport ratio (human ABCG2): 1.63 ± 0.17
Efflux transport ratio (murine ABCG2): 2.20 ± 0.13

Ivermectin
Inhibition potency value (ovine ABCG2 [7]): 45.9%
Inhibition of clorsulon (10 μM) transport mediated by ovine ABCG2 (in words) (ovine ABCG2 [1]): effectively inhibited
